Measurements published in patent US9120756B2, “Substituted phenylureas and phenylamides as vanilloid receptor ligands” (Gruenenthal GmbH, priority 2009, dated 2015).

Tests used:
Type in all cases: cell-based
hVR1 [1] = molecular target: T1, hVR1 (Homo sapiens (Human), UniProt Q8NER1); assay: FLIPR assay hVR1, after pH stimulus; parameters: key to IC50 (human being) hVR1 pH: result in words (NE / AG): AG=agonist; pAG=partial agonist; NE=no effect; settings: for inhibition at 10 µM: read-out: IC50 (human being) hVR1 pH: inhibition (as a percentage) @ 10 μM, inhibition determined at 10 μM
Procedure: In this assay, the influx of Ca^2+ through the channel is quantified with the aid of a Ca^2+-sensitive dye (type Fluo-4, Molecular Probes Europe BV, Leiden, the Netherlands) in a fluorescent imaging plate reader (FLIPR, Molecular Devices, Sunnyvale, USA). Chinese hamster ovary cells (CHO K1 cells, European Collection of Cell Cultures (ECACC) United Kingdom) are stably transfected with the VR1 gene. For functional testing, these cells are plated out on poly-D-lysine-coated black 96-well plates having a clear base (BD Biosciences, Heidelberg, Germany) at a density of 25,000 cells/well. […] Subsequently, the plates are washed three times with HBSS buffer and after further incubation for 15 minutes at RT used for Ca^2+ measurement in a FLIPR assay. […] Quantification is carried out by measuring the highest fluorescence intensity (FC, fluorescence counts) over time. The FLIPR protocol consists of 2 substance additions. […] Desensitising agonists and antagonists led to suppression of the Ca^2+ influx. […] Ki values for the test substances were obtained by conversion by means of the Cheng-Prusoff equation (Cheng, Prusoff; Biochem. Pharmacol. 22, 3099-3108, 1973).

hVR1 [2] = molecular target: T1, hVR1; assay: FLIPR Ca2+ influx assay on CHO K1 cells transfected with the VR1 gene, capsaicin stimulus (method II); settings: for Ki: capsaicin (Cap), read-out: Ki (human being) [nM] Cap; for inhibition at 1 µM: CHO-K1, read-out: Ki (human being) inhibition (as a percentage) @ 1 μM, capsaicin, inhibition determined at 1 μM
Excerpt: In the process, the Ca^2+ influx is quantified in the FLIPR assay with the aid of a Ca^2+-sensitive dye (type Fluo-4, Molecular Probes Europe BV, Leiden, the Netherlands) in a fluorescent imaging plate reader (FLIPR, Molecular Devices, Sunnyvale, USA), as described hereinafter.
(§1) The agonistic or antagonistic effect of the substances to be tested on the vanilloid receptor 1 (VR1) can also be determined using the following assay. In this assay, the influx of Ca^2+ through the channel is quantified with the aid of a Ca^2+-sensitive dye (type Fluo-4, Molecular Probes Europe BV, Leiden, the Netherlands) in a fluorescent imaging plate reader (FLIPR, Molecular Devices, Sunnyvale, USA).
(§2) Chinese hamster ovary cells (CHO K1 cells, European Collection of Cell Cultures (ECACC) United Kingdom) are stably transfected with the VR1 gene. For functional testing, these cells are plated out on poly-D-lysine-coated black 96-well plates having a clear base (BD Biosciences, Heidelberg, Germany) at a density of 25,000 cells/well. The cells are incubated overnight at 37° C. and 5% CO2 in a culture medium (Ham's F12 nutrient mixture, 10% by volume of FCS (foetal calf serum), 18 μg/ml of L-proline). The next day the cells are incubated with Fluo-4 (Fluo-4 2 μM, 0.01% by volume of Pluronic F127, Molecular Probes in HBSS (Hank's buffered saline solution), Gibco Invitrogen GmbH, Karlsruhe, Germany) for 30 minutes at 37° C. Subsequently, the plates are washed three times with HBSS buffer and after further incubation for 15 minutes at RT used for Ca^2+ measurement in a FLIPR assay. The Ca^2+-dependent fluorescence is measured before and after the addition of the substances to be tested (λex wavelength=488 nm, λem=540 nm). Quantification is carried out by measuring the highest fluorescence intensity (FC, fluorescence counts) over time.
The FLIPR protocol consists of 2 substance additions. First the compounds to be tested (10 μM) are pipetted onto the cells and the Ca^2+ influx is compared with the control (capsaicin 10 μM) (% activation based on the Ca^2+ signal after the addition of 10 μM of capsaicin). After 5 minutes' incubation, 100 nM of capsaicin are applied and the Ca^2+ influx is also determined.
(§3) Desensitising agonists and antagonists led to suppression of the Ca^2+ influx.
Starting from the percentage displacement caused by different concentrations of the compounds to be tested of general formula I, IC50 inhibitory concentrations which cause a 50-percent displacement of capsaicin were calculated. Ki values for the test substances were obtained by conversion by means of the Cheng-Prusoff equation (Cheng, Prusoff; Biochem. Pharmacol. 22, 3099-3108, 1973).

[3] = molecular target: rat-species vanilloid receptor 1 (VR1/TRPV1) (Rattus norvegicus (Rat), UniProt O35433); assay: FLIPR Ca2+ influx assay on rat dorsal root ganglia cells, capsaicin stimulus (method I); settings: capsaicin (Cap)
Procedure: The agonistic or antagonistic effect of the substances to be tested on the rat-species vanilloid receptor 1 (VR1/TRPV1) can be determined using the following assay. In this assay, the influx of Ca^2+ through the receptor channel is quantified with the aid of a Ca^2+-sensitive dye (type Fluo-4, Molecular Probes Europe BV, Leiden, the Netherlands) in a fluorescent imaging plate reader (FLIPR, Molecular Devices, Sunnyvale, USA).
Complete medium: 50 ml HAMS F12 nutrient mixture (Gibco Invitrogen GmbH, Karlsruhe, Germany) with
10% by volume of FCS (foetal calf serum, Gibco Invitrogen GmbH, Karlsruhe, Germany, heat-inactivated);
2 mM L-glutamine (Sigma, Munich, Germany);
1% by weight of AA solution (antibiotic/antimyotic solution, PAA, Pasching, Austria) and 25 ng/ml NGF medium (2.5 S, Gibco Invitrogen GmbH, Karlsruhe, Germany)
Cell culture plate: Poly-D-lysine-coated, black 96-well plates having a clear base (96-well black/clear plate, BD Biosciences, Heidelberg, Germany) are additionally coated with laminin (Gibco Invitrogen GmbH, Karlsruhe, Germany), the laminin being diluted with PBS (Ca—Mg-free PBS, Gibco Invitrogen GmbH, Karlsruhe, Germany) to a concentration of 100 μg/ml. Aliquots having a laminin concentration of 100 μg/ml are removed and stored at −20° C. The aliquots are diluted with PBS in a ratio of 1:10 to 10 μg/ml of laminin and respectively 50 μL of the solution are pipetted into a recess in the cell culture plate. The cell culture plates are incubated for at least two hours at 37° C., the excess solution is removed by suction and the recesses are each washed twice with PBS. The coated cell culture plates are stored with excess PBS which is not removed until just before the feeding of the cells.
The vertebral column is removed from decapitated rats and placed immediately into cold HBSS buffer (Hank's buffered saline solution, Gibco Invitrogen GmbH, Karlsruhe, Germany), i.e. buffer located in an ice bath, mixed with 1% by volume (percent by volume) of an AA solution (antibiotic/antimyotic solution, PAA, Pasching, Austria). The vertebral column is cut longitudinally and removed together with fasciae from the vertebral canal. Subsequently, the dorsal root ganglia (DRG) are removed and again stored in cold HBSS buffer mixed with 1% by volume of an AA solution. The DRG, from which all blood remnants and spinal nerves have been removed, are transferred in each case to 500 μL of cold type 2 collagenase (PAA, Pasching, Austria) and incubated for 35 minutes at 37° C. After the addition of 2.5% by volume of trypsin (PAA, Pasching, Austria), incubation is continued for 10 minutes at 37° C. After complete incubation, the enzyme solution is carefully pipetted off and 500 μL of complete medium are added to each of the remaining DRG. […] The contents of each Falcon tube are respectively filtered through a 70 μm Falcon filter element and centrifuged for 10 minutes at 1,200 rpm and RT. The resulting pellet is respectively taken up in 250 μL of complete medium and the cell count is determined.
The number of cells in the suspension is set to 3×10^5 per ml and 150 μL of this suspension are in each case introduced into a recess in the cell culture plates coated as described hereinbefore. […] Subsequently, the cells are loaded with 2 μM of Fluo-4 and 0.01% by volume of Pluronic F127 (Molecular Probes Europe BV, Leiden, the Netherlands) in HBSS buffer (Hank's buffered saline solution, Gibco Invitrogen GmbH, Karlsruhe, Germany) for 30 min at 37° C., washed 3 times with HBSS buffer and after further incubation for 15 minutes at RT used for Ca^2+ measurement in a FLIPR assay. The Ca^2+-dependent fluorescence is in this case measured before and after the addition of substances (λex=488 nm, λem=540 nm). Quantification is carried out by measuring the highest fluorescence intensity (FC, fluorescence counts) over time.
The FLIPR protocol consists of 2 substance additions.

hVR1 [4] = molecular target: T1, hVR1; assay: FLIPR assay human VR1, 45° C. stimulus; settings: for IC50: read-out: IC50 (human being) [nM], 45° C.
Excerpt: as §1, §2
The FLIPR protocol consists of 2 substance additions. […]
as §3
Ki values for the test substances were obtained by conversion by means of the Cheng-Prusoff equation (Cheng, Prusoff; Biochem. Pharmacol. 22, 3099-3108, 1973).

Chain of rat-species vanilloid receptor 1 (VR1/TRPV1) (O35433 whole entry): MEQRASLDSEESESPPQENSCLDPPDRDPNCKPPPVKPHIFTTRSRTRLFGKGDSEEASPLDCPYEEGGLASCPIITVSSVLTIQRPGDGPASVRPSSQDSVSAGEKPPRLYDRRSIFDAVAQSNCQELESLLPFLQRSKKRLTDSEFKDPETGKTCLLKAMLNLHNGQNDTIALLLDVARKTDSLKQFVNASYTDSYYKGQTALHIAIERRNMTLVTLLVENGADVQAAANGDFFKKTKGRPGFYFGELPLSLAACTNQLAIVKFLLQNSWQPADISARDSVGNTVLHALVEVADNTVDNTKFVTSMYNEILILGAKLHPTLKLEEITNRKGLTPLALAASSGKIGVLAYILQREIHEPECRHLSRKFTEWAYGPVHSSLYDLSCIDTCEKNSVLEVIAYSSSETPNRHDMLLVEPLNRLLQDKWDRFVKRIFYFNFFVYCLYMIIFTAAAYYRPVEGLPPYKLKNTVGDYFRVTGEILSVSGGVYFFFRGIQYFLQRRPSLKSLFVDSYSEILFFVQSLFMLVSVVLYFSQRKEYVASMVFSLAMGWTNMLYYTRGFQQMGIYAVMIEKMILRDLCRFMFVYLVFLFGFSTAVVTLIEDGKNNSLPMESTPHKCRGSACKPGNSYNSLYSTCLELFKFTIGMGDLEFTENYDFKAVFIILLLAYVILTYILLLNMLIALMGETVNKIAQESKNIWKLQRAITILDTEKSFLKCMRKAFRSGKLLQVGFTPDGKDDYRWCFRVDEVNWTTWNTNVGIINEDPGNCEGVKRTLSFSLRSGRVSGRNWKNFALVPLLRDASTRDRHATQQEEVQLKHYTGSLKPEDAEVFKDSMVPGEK
T1 sequence (Q8NER1 whole entry): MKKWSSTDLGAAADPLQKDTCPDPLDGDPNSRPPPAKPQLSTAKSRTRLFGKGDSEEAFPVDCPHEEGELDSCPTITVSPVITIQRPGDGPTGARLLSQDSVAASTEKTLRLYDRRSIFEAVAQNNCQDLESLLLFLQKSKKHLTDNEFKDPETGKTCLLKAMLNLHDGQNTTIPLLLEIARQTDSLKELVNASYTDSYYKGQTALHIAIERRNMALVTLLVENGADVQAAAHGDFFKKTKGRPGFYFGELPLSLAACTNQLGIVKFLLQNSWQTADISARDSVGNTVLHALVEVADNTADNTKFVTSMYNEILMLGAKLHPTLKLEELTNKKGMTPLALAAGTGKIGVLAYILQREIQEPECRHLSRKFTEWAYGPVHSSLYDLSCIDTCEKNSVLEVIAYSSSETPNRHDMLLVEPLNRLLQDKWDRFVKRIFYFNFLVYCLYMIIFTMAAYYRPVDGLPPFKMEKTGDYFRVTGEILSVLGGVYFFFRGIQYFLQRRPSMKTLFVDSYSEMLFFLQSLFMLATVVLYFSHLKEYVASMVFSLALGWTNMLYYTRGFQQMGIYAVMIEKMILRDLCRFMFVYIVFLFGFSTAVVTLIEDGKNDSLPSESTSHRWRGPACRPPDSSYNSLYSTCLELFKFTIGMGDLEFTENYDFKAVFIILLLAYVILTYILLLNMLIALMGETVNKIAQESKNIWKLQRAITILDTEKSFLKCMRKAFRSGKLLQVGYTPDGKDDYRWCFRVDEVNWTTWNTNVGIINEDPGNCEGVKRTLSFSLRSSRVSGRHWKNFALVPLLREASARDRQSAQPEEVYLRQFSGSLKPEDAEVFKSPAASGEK

| Structure (SMILES) | IC50 (human being) hVR1 pH: result in words (NE / AG) (hVR1 [1]) | Ki (hVR1 [2]) [nM] | Ki [3] [nM] | inhibition at 10 µM (hVR1 [1]) [%] | other results |
| --- | --- | --- | --- | --- | --- |
| CC(C(=O)NCc1cc(C(C)(C)C)nn1C1CCCCC1)c1ccc(NS(C)(=O)=O)c(F)c1 (stereo not drawn) [Example 7, N-((3-tert-butyl-1-cyclohexyl-1H-pyrazol-5-yl)methyl)-2-(3-fluoro-4-(methylsulphonamido)phenyl)propanamide] | NE | 21.6 | 0.35 |  |  |
| Cc1ccc(/C=C/n2nc(C(C)(C)C)cc2CNC(=O)C(C)c2ccc(NS(C)(=O)=O)c(F)c2)cc1 (stereo not drawn) [Example 19, (E)-N-((3-tert-butyl-1-(4-methylstyryl)-1H-pyrazol-5-yl)methyl)-2-(3-fluoro-4-(methylsulphonamido)phenyl)propanamide] | NE |  | 819 |  | inhibition at 1 µM (hVR1 [2]): 44% |
| COc1ccc(-n2nc(C(C)(C)C)cc2CNC(=O)C(C)c2ccc(NS(C)(=O)=O)c(F)c2)cc1 (stereo not drawn) [Example 20, N-((3-tert-butyl-1-(4-methoxyphenyl)-1H-pyrazol-5-yl)methyl)-2-(3-fluoro-4-(methylsulphonamido)phenyl)propanamide] | NE |  | 2830 |  | inhibition at 1 µM (hVR1 [2]): 55% |
| C[C@@H](C(=O)NCc1cc(C(F)(F)F)nn1-c1ccc(Cl)cc1)c1ccc(NS(C)(=O)=O)c(F)c1 [Example 22, (R)-N-((1-(4-chlorophenyl)-3-(trifluoromethyl)-1H-pyrazol-5-yl)methyl)-2-(3-fluoro-4-(methylsulphonamido)phenyl)propanamide] |  | 31.7 | 42.7 | 42 |  |

Now from value to compound, other results behind:

| IC50 (human being) hVR1 pH: result in words (NE / AG) (hVR1 [1]) | Ki (hVR1 [2]) [nM] | Ki [3] [nM] | inhibition at 10 µM (hVR1 [1]) [%] | Structure (SMILES) | other results |
| --- | --- | --- | --- | --- | --- |
|  | 3.7 | 7.2 | 25 | CC(C(=O)NCc1cc(C(C)(C)C)nn1-c1ccc(Cl)cc1)c1ccc(NS(C)(=O)=O)c(F)c1 (stereo not drawn) [Example 14, N-((3-tert-butyl-1-(4-chlorophenyl)-1H-pyrazol-5-yl)methyl)-2-(3-fluoro-4-(methylsulphonamido)phenyl)propanamide] |  |
|  | 2.1 | 2.5 |  | C[C@H](C(=O)NCc1cc(C(C)(C)C)nn1-c1ccc(Cl)cc1)c1ccc(NS(C)(=O)=O)c(F)c1 [Example 15, (S)-N-((3-tert-butyl-1-(4-chlorophenyl)-1H-pyrazol-5-yl)methyl)-2-(3-fluoro-4-(methylsulphonamido)phenyl)propanamide] | inhibition at 5 µM (hVR1 [1]; read-out: IC50 (human being) hVR1 pH column: inhibition (as a percentage) @ 5 μM, inhibition determined at 5 μM): 14% |
| NE | 0.3 |  |  | CC(C(=O)NCc1cc(C(C)(C)C)nn1-c1cccc(Cl)c1)c1ccc(NS(C)(=O)=O)c(F)c1 (stereo not drawn) [Example 16, N-((3-tert-butyl-1-(3-chlorophenyl)-1H-pyrazol-5-yl)methyl)-2-(3-fluoro-4-(methylsulphonamido)phenyl)propanamide] | inhibition at 0.625 µM (hVR1 [4]; inhibition determined at 0.625 μM, read-out: IC50 (human being) 45° C. column: inhibition (as a percentage) @ 0.625 μM): 35% |
|  | 0.5 |  | 31 | CC(C(=O)NCc1cc(C(C)(C)C)nn1-c1ccc(F)c(Cl)c1)c1ccc(NS(C)(=O)=O)c(F)c1 (stereo not drawn) [Example 18, N-((3-tert-butyl-1-(3-chloro-4-fluorophenyl)-1H-pyrazol-5-yl)methyl)-2-(3-fluoro-4-(methylsulphonamido)phenyl)propanamide] | IC50 (hVR1 [4]): 7 nM |
| NE | 2.2 | 1.2 |  | COc1cc(C(C)C(=O)NCc2cc(C(C)(C)C)nn2-c2cccc(Cl)c2)ccc1NS(C)(=O)=O (stereo not drawn) [Example 27, N-((3-tert-butyl-1-(3-chlorophenyl)-1H-pyrazol-5-yl)methyl)-2-(3-methoxy-4-(methylsulphonamido)phenyl)propanamide] |  |
|  | 0.4 |  |  | COc1cc(C(C)C(=O)NCc2cc(C(F)(F)F)nn2-c2cccc(Cl)c2)ccc1NS(C)(=O)=O (stereo not drawn) [Example 28, N-((1-(3-chlorophenyl)-3-(trifluoromethyl)-1H-pyrazol-5-yl)methyl)-2-(3-methoxy-4-(methylsulphonamido)phenyl)propanamide] | IC50 (hVR1 [1]; read-out: IC50 (human being) hVR1 [nM], pH): 16 nM; IC50 (hVR1 [4]): 665 nM |
